PMC6274419, “Synthesis and Anticancer Activities of Glycyrrhetinic Acid Derivatives” (Molecules, 2016)

Key:
MCF-7 cells = assay: MTT cytotoxicity assay, MCF-7; assay type: cell-based, human; conditions: MCF7; human breast cancer cell line MCF-7, MTT method, 24 h treatment, mean ± SD; read-out: IC50 MCF-7
Method: (§1) The anticancer activities of compounds 17–24, 41–56 against MCF-7, MDA-MB-231 and hTERT-RPE1 cells were determined in vitro by an MTT assay. […] The data was calculated and presented as IC50 values in Table 1.
(§2) The cytotoxicities of the compounds were evaluated by the MTT assay, which is based on the conversion of MTT to formazan crystals by mitochondrial dehydrogenases. […] The medium was incubated with 20 μL of 5 mg/mL MTT solution for 3 h in a humidified incubator containing 5% CO2. The purple coloured formazan crystals formed in the wells were dissolved in DMSO and their absorbances were measured at 570 nm with a microplate reader. Cell viability was expressed as a percentage of the value in control cultures.

hTERT-RPE1 cells = assay: MTT cytotoxicity assay, hTERT-RPE1 normal cells; assay type: cell-based, human; conditions: normal human retinal pigment epithelial cell line hTERT-RPE1, MTT method, 24 h treatment, mean ± SD; read-out: IC50 hTERT-RPE1
Method: as §1, §2

MDA-MB-231 cells = assay: MTT cytotoxicity assay, MDA-MB-231; assay type: cell-based, human; conditions: human breast cancer cell line MDA-MB-231, MTT method, 24 h treatment, mean ± SD; read-out: IC50 MDA-MB-231
Method: The data was calculated and presented as IC50 values in Table 1.
as §2

Question: For `COC(=O)/C=C/c1ccc(OC(=O)[C@@]2(C)CC[C@]3(C)CC[C@]4(C)C(=CC(=O)[C@@H]5[C@@]6(C)CC[C@H](O)C(C)(C)[C@@H]6CC[C@]54C)[C@@H]3C2)cc1` [Compound 19, trans-4-Hydroxycinnamic acid methyl ester 3β-hydroxy-11-oxo-olean-12-en-30-oate], which IC50 (MCF-7 cells) is on record?
Answer: 20.3 ± 1.47 µM

Question: What about the IC50 (hTERT-RPE1 cells) of the same compound?
Answer: 29.6 ± 1.16 µM

Question: What about the IC50 (MDA-MB-231 cells) of the same compound?
Answer: 14.4 ± 0.52 µM

Question: What about the melting point of the same compound?
Answer: 202 to 205 °C

Question: For `CCOC(=O)/C=C/c1ccc(OC(=O)[C@@]2(C)CC[C@]3(C)CC[C@]4(C)C(=CC(=O)[C@@H]5[C@@]6(C)CC[C@H](O)C(C)(C)[C@@H]6CC[C@]54C)[C@@H]3C2)cc1` [Compound 20, trans-4-Hydroxycinnamic acid ethyl ester 3β-hydroxy-11-oxo-olean-12-en-30-oate], which IC50 (MCF-7 cells) is on record?
Answer: 24.4 ± 1.36 µM

Question: And the IC50 (hTERT-RPE1 cells)?
Answer: 28.4 ± 0.87 µM

Question: And the IC50 (MDA-MB-231 cells)?
Answer: 14.5 ± 0.58 µM

Question: And the melting point?
Answer: 195 to 196 °C

Question: Which IC50 (MCF-7 cells) does the source give for `COC(=O)/C=C/c1ccc(OC)c(OC(=O)[C@@]2(C)CC[C@]3(C)CC[C@]4(C)C(=CC(=O)[C@@H]5[C@@]6(C)CC[C@H](O)C(C)(C)[C@@H]6CC[C@]54C)[C@@H]3C2)c1` [Compound 21, Isoferulic acid methyl ester 3β-hydroxy-11-oxo-olean-12-en-30-oate] here?
Answer: 8.54 ± 0.67 µM

Question: What about the IC50 (hTERT-RPE1 cells) of the same compound?
Answer: 18.6 ± 0.54 µM

Question: What about the IC50 (MDA-MB-231 cells) of the same compound?
Answer: 7.31 ± 0.16 µM

Question: What about the melting point of the same compound?
Answer: 215 to 217 °C

Question: Which IC50 (MCF-7 cells) does the source give for `CCOC(=O)/C=C/c1ccc(OC)c(OC(=O)[C@@]2(C)CC[C@]3(C)CC[C@]4(C)C(=CC(=O)[C@@H]5[C@@]6(C)CC[C@H](O)C(C)(C)[C@@H]6CC[C@]54C)[C@@H]3C2)c1` [Compound 22, Isoferulic acid ethyl ester 3β-hydroxy-11-oxo-olean-12-en-30-oate] here?
Answer: 19.3 ± 1.01 µM

Question: What about the IC50 (hTERT-RPE1 cells) of the same compound?
Answer: 21.1 ± 0.73 µM

Question: And the IC50 (MDA-MB-231 cells)?
Answer: 9.41 ± 1.03 µM

Question: And the melting point?
Answer: 210 to 213 °C

Question: What does the source list for `COC(=O)/C=C/c1cccc(OC(=O)[C@@]2(C)CC[C@]3(C)CC[C@]4(C)C(=CC(=O)[C@@H]5[C@@]6(C)CC[C@H](O)C(C)(C)[C@@H]6CC[C@]54C)[C@@H]3C2)c1` [Compound 23, trans-3-Hydroxycinnamic acid methyl ester 3β-hydroxy-11-oxo-olean-12-en-30-oate]?
Answer: IC50 (MCF-7 cells): 14.9 ± 0.75 µM; IC50 (hTERT-RPE1 cells): 24.1 ± 0.88 µM; IC50 (MDA-MB-231 cells): 20.8 ± 1.2 µM; melting point: 188 to 190 °C

Question: What does the source list for `CCOC(=O)/C=C/c1cccc(OC(=O)[C@@]2(C)CC[C@]3(C)CC[C@]4(C)C(=CC(=O)[C@@H]5[C@@]6(C)CC[C@H](O)C(C)(C)[C@@H]6CC[C@]54C)[C@@H]3C2)c1` [Compound 24, trans-3-Hydroxycinnamic acid ethyl ester 3β-hydroxy-11-oxo-olean-12-en-30-oate]?
Answer: IC50 (MCF-7 cells): 19.3 ± 0.98 µM; IC50 (hTERT-RPE1 cells): 22.9 ± 0.68 µM; IC50 (MDA-MB-231 cells): 23.2 ± 1.07 µM; melting point: 173 to 175 °C
